Assay results as given in patent US20210380548A1, “Fused [1,2,4]Thiadiazine Derivatives Which Act as KAT Inhibitors of the MYST Family” (CTxT Pty Limited, priority 2017, published 2021).

Experiments:
TIP60-KAT5 [1] = biological target: T1, TIP60-KAT5 (Homo sapiens, UniProt Q92993); assay: Acetyltransferase biochemical assay (AlphaScreen), KAT5; settings: Table 1 (TIP60-KAT5); 0.4 μM Acetyl coenzyme A, histone H4, 10 nM enzyme
T1 construct: encoding amino acid residues 2 to 461 (Uniprot Q92993-2) of human KAT5 isoform; made in house; host or cells: E. coli BL21 DE3
T1 sequence (Q92993 2-461 isoform Q92993-2): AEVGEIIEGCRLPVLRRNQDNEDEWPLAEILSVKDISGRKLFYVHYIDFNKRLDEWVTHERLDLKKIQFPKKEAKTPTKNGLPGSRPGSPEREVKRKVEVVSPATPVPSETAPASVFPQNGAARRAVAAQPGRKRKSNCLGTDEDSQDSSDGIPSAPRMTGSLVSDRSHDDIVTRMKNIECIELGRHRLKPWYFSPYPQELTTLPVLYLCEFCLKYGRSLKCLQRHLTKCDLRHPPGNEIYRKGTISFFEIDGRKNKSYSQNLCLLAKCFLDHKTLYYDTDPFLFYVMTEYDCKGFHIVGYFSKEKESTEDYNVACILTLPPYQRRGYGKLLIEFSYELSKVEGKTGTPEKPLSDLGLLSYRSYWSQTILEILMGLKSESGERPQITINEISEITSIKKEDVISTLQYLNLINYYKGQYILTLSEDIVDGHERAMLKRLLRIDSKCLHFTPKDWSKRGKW

MOZ-KAT6A [2] = biological target: T2, MOZ-KAT6A (Homo sapiens, UniProt Q92794, A567V); assay: Acetyltransferase biochemical assay (AlphaScreen), KAT6A; settings: Table 2 (MOZ-KAT6A); 10 μM Acetyl coenzyme A, histone H3.1, 5 nM enzyme
T2 construct: encoding amino acid residues 507 to 778 (Uniprot Q92794-1) of human KAT6A; made in house; host or cells: E. coli BL21 DE3
T2 sequence (Q92794 507-778 A567V limits assumed): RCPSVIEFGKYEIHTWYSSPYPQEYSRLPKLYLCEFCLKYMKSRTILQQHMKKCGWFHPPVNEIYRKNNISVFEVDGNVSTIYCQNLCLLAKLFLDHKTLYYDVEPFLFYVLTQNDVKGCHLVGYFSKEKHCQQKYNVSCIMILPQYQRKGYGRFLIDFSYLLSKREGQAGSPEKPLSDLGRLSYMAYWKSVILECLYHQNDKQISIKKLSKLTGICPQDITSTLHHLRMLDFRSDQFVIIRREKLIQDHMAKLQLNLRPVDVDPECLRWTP

HBO-KAT7 [3] = biological target: T3, HBO-KAT7 (Homo sapiens, UniProt O95251); assay: Acetyltransferase biochemical assay (AlphaScreen), KAT7; settings: Table 3 (HBO-KAT7); 0.4 μM Acetyl coenzyme A, histone H3.1, 40 nM enzyme
T3 construct: encoding amino acid residues 325 to 611 (Uniprot 095251-1) of human KAT7; made in house; host or cells: E. coli BL21 DE3 RIL
T3 sequence (O95251 with tags, fused parts or gaps): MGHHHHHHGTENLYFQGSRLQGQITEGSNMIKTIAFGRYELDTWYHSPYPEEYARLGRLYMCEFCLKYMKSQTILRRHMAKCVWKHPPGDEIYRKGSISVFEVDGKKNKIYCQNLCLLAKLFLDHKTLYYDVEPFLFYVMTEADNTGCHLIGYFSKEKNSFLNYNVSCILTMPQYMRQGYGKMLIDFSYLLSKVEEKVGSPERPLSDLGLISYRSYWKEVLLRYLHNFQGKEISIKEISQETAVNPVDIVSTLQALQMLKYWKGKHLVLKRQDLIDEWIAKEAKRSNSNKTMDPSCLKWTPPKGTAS

MOF-KAT8 [4] = biological target: T4, MOF-KAT8 (Homo sapiens, UniProt Q9H7Z6); assay: Acetyltransferase biochemical assay (AlphaScreen), KAT8; settings: Table 4 (MOF-KAT8); 0.4 μM Acetyl coenzyme A, histone H4, 20 nM enzyme
T4 sequence (Q9H7Z6 177-447): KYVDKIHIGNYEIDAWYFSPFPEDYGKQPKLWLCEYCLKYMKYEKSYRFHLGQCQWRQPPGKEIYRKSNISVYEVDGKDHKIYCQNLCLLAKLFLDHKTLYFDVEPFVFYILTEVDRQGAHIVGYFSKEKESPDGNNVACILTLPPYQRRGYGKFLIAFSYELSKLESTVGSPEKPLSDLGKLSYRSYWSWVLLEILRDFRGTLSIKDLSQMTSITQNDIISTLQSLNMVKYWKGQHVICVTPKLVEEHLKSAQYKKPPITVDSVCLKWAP

MOZ-KAT6A [5] = biological target: T2, MOZ-KAT6A; assay: Revised Acetyltransferase Biochemical Assay, KAT6A; settings: Table 8 (MOZ-KAT6A), 1 μM Acetyl coenzyme A
HBO-KAT7 [6] = biological target: T3, HBO-KAT7; assay: Revised Acetyltransferase Biochemical Assay, KAT7; settings: Table 9 (HBO-KAT7), 1 μM Acetyl coenzyme A
TIP60-KAT5 [7] = biological target: T1, TIP60-KAT5; assay: Revised Acetyltransferase Biochemical Assay, KAT5; settings: 10 nM KAT5, 1 μM AcCoA, 100 nM histone H4, 90 min
QKF-KAT6B = biological target: T5, QKF-KAT6B (Homo sapiens, UniProt Q8WYB5); assay: Revised Acetyltransferase Biochemical Assay, KAT6B; settings: 8 nM KAT6B, 1 μM AcCoA, 100 nM histone H3.1, 90 min
T5 construct: purchased SignalChem K315-381BG
T5 sequence (Q8WYB5 whole entry): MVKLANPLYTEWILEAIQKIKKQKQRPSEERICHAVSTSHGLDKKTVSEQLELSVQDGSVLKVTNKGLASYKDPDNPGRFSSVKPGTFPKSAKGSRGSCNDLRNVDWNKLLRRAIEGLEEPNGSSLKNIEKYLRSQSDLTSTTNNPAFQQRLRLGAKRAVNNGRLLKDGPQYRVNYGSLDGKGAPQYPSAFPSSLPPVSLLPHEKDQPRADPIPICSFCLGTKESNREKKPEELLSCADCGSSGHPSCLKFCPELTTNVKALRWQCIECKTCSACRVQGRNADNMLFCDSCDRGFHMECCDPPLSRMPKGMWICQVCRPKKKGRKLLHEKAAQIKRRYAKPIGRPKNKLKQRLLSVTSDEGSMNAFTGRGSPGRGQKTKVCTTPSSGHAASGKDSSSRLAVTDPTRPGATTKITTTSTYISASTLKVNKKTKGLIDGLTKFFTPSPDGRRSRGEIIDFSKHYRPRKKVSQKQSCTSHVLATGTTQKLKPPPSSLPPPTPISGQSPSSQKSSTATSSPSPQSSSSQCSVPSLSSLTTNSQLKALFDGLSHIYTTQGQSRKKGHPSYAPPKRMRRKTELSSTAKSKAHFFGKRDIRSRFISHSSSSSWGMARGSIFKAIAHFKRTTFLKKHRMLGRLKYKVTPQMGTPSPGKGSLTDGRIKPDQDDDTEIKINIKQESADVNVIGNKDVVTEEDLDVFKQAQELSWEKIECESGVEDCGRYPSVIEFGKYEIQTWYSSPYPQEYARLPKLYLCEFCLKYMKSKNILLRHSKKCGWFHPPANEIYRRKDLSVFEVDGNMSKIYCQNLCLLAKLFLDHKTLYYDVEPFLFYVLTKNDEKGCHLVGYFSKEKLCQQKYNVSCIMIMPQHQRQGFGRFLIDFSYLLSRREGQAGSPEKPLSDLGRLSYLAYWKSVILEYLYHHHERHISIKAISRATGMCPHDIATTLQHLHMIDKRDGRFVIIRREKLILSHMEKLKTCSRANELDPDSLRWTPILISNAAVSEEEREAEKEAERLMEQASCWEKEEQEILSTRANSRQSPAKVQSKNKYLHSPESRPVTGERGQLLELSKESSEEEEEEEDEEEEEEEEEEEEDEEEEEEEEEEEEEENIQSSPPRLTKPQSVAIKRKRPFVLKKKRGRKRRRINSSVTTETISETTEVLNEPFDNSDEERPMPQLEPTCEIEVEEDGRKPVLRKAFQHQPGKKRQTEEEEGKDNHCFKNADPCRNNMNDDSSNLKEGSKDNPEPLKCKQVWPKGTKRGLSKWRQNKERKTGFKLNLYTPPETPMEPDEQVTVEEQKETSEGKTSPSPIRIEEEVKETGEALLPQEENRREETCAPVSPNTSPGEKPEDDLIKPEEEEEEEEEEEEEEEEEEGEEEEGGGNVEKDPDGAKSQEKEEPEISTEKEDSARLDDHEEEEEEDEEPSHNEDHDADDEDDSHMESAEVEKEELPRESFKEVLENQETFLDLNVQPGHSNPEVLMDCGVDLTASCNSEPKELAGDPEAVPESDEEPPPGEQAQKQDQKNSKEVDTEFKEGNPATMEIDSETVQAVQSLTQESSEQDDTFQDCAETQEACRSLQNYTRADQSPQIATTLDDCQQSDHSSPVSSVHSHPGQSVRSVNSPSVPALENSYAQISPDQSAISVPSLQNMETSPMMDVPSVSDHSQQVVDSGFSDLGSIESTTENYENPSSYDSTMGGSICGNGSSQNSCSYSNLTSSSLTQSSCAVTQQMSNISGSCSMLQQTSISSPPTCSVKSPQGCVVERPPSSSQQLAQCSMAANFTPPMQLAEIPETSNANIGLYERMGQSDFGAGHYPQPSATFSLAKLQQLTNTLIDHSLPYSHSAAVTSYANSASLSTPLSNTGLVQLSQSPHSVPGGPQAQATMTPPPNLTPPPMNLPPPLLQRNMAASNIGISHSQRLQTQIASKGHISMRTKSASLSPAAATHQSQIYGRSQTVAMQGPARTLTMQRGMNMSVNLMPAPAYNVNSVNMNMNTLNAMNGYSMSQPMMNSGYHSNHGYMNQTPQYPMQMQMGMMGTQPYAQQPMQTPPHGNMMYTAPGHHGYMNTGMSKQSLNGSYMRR
Text: KAT6B was obtained from SignalChem, catalog ID: K315-381BG

[8] = tested on: histone H3K23 acetylation (KATE mediated) in U2OS cells; assay: Histone H3 Lysine 23 Acetylation Biomarker Assay (U2OS); assay type: cell-based; settings: Homo sapiens, 96 well, 24 hours incubation
Procedure: Compounds may be tested for their ability to inhibit acetylation of the histone H3K23 marker, which is KATE mediated, in the following assay:
The cell line U2OS was seeded at a density of 9,000 cells per well in 96 well optical quality tissue culture plates in RPMI medium and 10% foetal bovine serum, and allowed to adhere for 24 hours under standard culture conditions (37 degree Celsius, 5% CO2). At the end of this period the medium was aspirated. Compound dilutions prepared in DMSO were added to medium, with negative control wells reserved for treatment with DMSO only and 100% inhibition positive controls receiving a potent inhibitor compound (e.g. cas 2055397-28-7, benzoic acid, 3-fluoro-5-(2-pyridinyl)-, 2-[(2-fluorophenyl)sulfonyl]hydrazide) (Baell, J., Nguyen, H. N., Leaver, D. J., Cleary, B. L., Lagiakos, H. R., Sheikh, B. N., Thomas. T. J., Aryl sulfonohydrazides, WO2016198507A1, 2016) at 10 μM concentration and 200 μL transferred to the cells. After incubation for 24 hours, the cells were fixed with 3.7% formaldehyde in PBS for 20 minutes at room temperature, washed (5×5 minutes) with phosphate buffer saline containing 0.1% Tween 20 and blocked with Odyssey blocking buffer (LI-COR, Lincoln, Nebr.) containing 0.1% TritonX100. Anti-H3K23ac specific antibody (Abcam ab177275) in Odyssey blocking buffer containing 0.1% Tween 20 was added and incubated for 16 hours at 4 degree Celsius. After washing (as above), a secondary antibody labelled with Alexa647 dye (LifeTechnologies) and Hoechst 33342 (1 μg/mL, SigmaAldrich) were added for 1 hour incubation. Plates were washed as previously and read on a PerkinElmer Phenix high content imaging platform. Using a Columbus image analysis pipeline, individual nuclei were located by Hoechst 33342 stain and the acetylation level was calculated from the Alexa647-related intensity in the same area. The resulting mean intensity per cell was directly converted to percent inhibition relative to controls on the same plate and the data fitted against a four-parameter logistic model to determine the 50% inhibitory concentration (IC50).

MOF-KAT8 [9] = biological target: T4, MOF-KAT8; assay: Revised Acetyltransferase Biochemical Assay, KAT8
[10] = tested on: histone H3 Lysine 14 acetylation (HBO1 mediated) in U2OS cells; assay: Histone H3 Lysine 14 Acetylation Biomarker Assay (384-well, U2OS); assay type: cell-based; settings: Homo sapiens, serum free medium, 24 hours incubation
How it was run: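 U2OS cells in serum-free medium treated with compound 24 h; DMSO and 10 μM reference inhibitor as 0% and 100% controls. Fixed cells immunostained for H3K14ac (AlexaFluor 488) with Hoechst nuclear mask, imaged by high-content analysis; per-cell intensity converted to % inhibition, IC50 by four-parameter logistic fit.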

[11] = tested on: histone H2A.Z Lysine 7 acetylation (TIP60 mediated) in U2OS cells; assay: H2A.Z Lysine 7 Acetylation Biomarker Assay (384-well, U2OS); assay type: cell-based; settings: Homo sapiens, serum free medium, 24 hours incubation
How it was run: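 U2OS cells (3,000/well) were treated with compound for 24 h after a serum-free wash, then fixed. They were stained with anti-H2A.ZK7ac, an AlexaFluor 488 secondary and Hoechst. High-content imaging gave mean nuclear intensity per cell, converted to percent inhibition against on-plate controls, and IC50 came from a four-parameter logistic fit.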

Row | IC50 (TIP60-KAT5 [1]) [µM] | IC50 (MOZ-KAT6A [2]) [µM] | IC50 (HBO-KAT7 [3]) [µM] | IC50 (MOF-KAT8 [4]) [µM] | IC50 (MOZ-KAT6A [5]) [µM] | IC50 (HBO-KAT7 [6]) [µM] | IC50 (TIP60-KAT5 [7]) [µM] | IC50 (QKF-KAT6B) [µM] | IC50 [8] [µM] | IC50 (MOF-KAT8 [9]) [µM] | IC50 [10] [µM] | IC50 [11] [µM] | SMILES
1 |  |  |  |  | 0.007 | 0.183 | 0.714 | 0.072 | 0.093 | 36.8 | 0.611 | 5.35 | O=C(NCC(c1ccccc1)c1nccs1)C1=Nc2ccc(Cl)cc2S(=O)(=O)N1 (centres unmarked) [Example 166]
2 |  |  |  | > 125 | 0.122 | 59.5 | > 125 | > 125 | > 10 | > 125 |  | > 40 | O=C(NCCC1CCCCC1)C1=Nc2ccc(I)cc2S(=O)(=O)N1 [Example 204]
3 |  |  | 0.038 | 6.13 | 0.013 | 0.014 | 0.154 | 0.254 |  | 9.25 | 3.2 | 1.99 | Cc1cccc(C(CNC(=O)C2=Nc3ccc(I)cc3S(=O)(=O)N2)c2ncco2)c1 (centres unmarked) [Example 233, 7-iodo-N-(2-(oxazol-2-yl)-2-(m-tolyl)ethyl)-2H-benzo[e][1,2,4]thiadiazine-3-carboxamide 1,1-dioxide]
4 |  |  |  | 41.4 | 0.188 | 0.881 | 1.81 | 5.87 |  | 25.6 | 13.7 |  | O=C(NCC(F)(F)c1ccccc1)C1=Nc2ccc(I)cc2S(=O)(=O)N1 [Example 238, N-(2,2-difluoro-2-phenylethyl)-7-iodo-2H-benzo[e][1,2,4]thiadiazine-3-carboxamide 1,1-dioxide]

More lines, now with the values behind:

Row | SMILES | IC50 (TIP60-KAT5 [1]) [µM] | IC50 (MOZ-KAT6A [2]) [µM] | IC50 (HBO-KAT7 [3]) [µM] | IC50 (MOF-KAT8 [4]) [µM] | IC50 (MOZ-KAT6A [5]) [µM] | IC50 (HBO-KAT7 [6]) [µM] | IC50 (TIP60-KAT5 [7]) [µM] | IC50 (QKF-KAT6B) [µM] | IC50 [8] [µM] | IC50 (MOF-KAT8 [9]) [µM] | IC50 [10] [µM] | IC50 [11] [µM]
5 | O=C(NCC(c1ccccc1)c1ncco1)C1=Nc2ccc(-c3cn[nH]c3)cc2S(=O)(=O)N1 (centres unmarked) [Example 26, N-(2-(Oxazol-2-yl)-2-phenylethyl)-7-(1H-pyrazol-4-yl)-2H-benzo[e][1,2, 4]thiadiazine-3-carboxamide 1,1-dioxide] | 1.66 | 0.0287 | 1.48 | 23.7 | 0.041 | 5.07 | 5.94 | 0.12 | 1.08 | 39.9 |  | 
6 | CNC(=O)c1ccc2c(c1)S(=O)(=O)NC(C(=O)NCC(c1ccccc1)c1ncco1)=N2 (centres unmarked) [Example 32, N^7-Methyl-N^3-(2-(oxazol-2-yl)-2-phenylethyl)-2H-benzo[e][1,2,4]thiadiazine-3,7-dicarboxamide 1,1-dioxide] | 5.04 | 0.0498 | 4.64 | 74.1 | 0.03 | 0.356 | 5.33 | 0.155 | > 10 | > 125 |  | 
7 | COc1cc(C)cc(C(CNC(=O)C2=Nc3ccc(I)cc3S(=O)(=O)N2)c2ncco2)c1 (centres unmarked) [Example 196, 7-iodo-N-(2-(3-methoxy-5-methylphenyl)-2-(oxazol-2-yl)ethyl)-2H-benzo[e][1,2,4]thiadiazine-3-carboxamide 1,1-dioxide] |  |  |  |  | 0.08 | 0.025 | 0.818 | 0.991 | 1.01 | 78.6 | 0.095 | 0.882
8 | O=C(NCCC1CCCCC1)C1=Nc2ccc(-c3c[nH]nn3)cc2S(=O)(=O)N1 [Example 201] |  |  |  |  | 0.268 | 56.5 | 43.7 | 5.26 | > 10 |  | > 40 | > 40
9 | Cc1cc(O)cc(C(CNC(=O)C2=Nc3ccc(Cl)cc3S(=O)(=O)N2)c2ncco2)c1 (centres unmarked) [Example 221, 7-Chloro-N-(2-(3-hydroxy-5-methylphenyl)-2-(oxazol-2-yl)ethyl)-2H-benzo[e][1,2,4]thiadiazine-3-carboxamide 1,1-dioxide] |  |  |  |  | 0.572 | 0.072 | 1.57 | 4.33 | > 10 |  | 1.66 | 6.87
